Key:
traumatic hemophthalmia = assay: Experimental traumatic hemophthalmia: biochemical parameters in blood serum, tear liquid, anterior chamber liquid and eye tissue; assay type: in vivo, chinchilla rabbits
Procedure: Studies were carried out in 12 chinchilla rabbits having body weight 2.0-2.5 kg. A traumatic hemophthalmia was modeled by introduction of 0.5 to 0.7 ml of autoblood into a vitreous body through a puncture in a sclera on distance of 5 mm from a limbus, under a local anaesthesia. The basic group made with 6 rabbits (12 eyes), daily received a formulation prepared in accordance with the present invention parabulbarly (0.5 ml of 1% solution). A control group presented by 6 animals (12 eyes), daily received parabulbar emoxipin (2-ethyl-6-methyl-3-hydroxypiridin) in the same dosage. Treatment was carried out within 14 days after a trauma.
The materials used for biochemical examination were as follows: blood, liquid of the anterior chamber, tear liquid, tunics of eyeglobe (retina, a vitreous body). The blood was taken from the aural vein in an amount of 3 ml. Sampling of tear liquid was carried out by a microcapillary after instillation of distilled water into the conjunctival cavity. Liquid of the anterior chamber was obtained by paracentesis. The blood sampling as well as liquid of the anterior chamber and teat liquid were carried out on the 1st, 7th and 14th day of the experiment. On the 15th day of the studies, the animals were killed (pithed) by air embolism and both the eyes were enucleated. The eyes were prepared by tunic separation. Retina and vitreous body were obtained.

[1] = system: lipofuscin induced cardiolipin photoperoxidation; assay: Inhibition of lipofuscin induced cardiolipin liposome photoperoxidation; assay type: biochemical, human; conditions: for Concentration of TBK-active products / Inhibition: 2 mM compound; for Inhibiting / protective effect regarding phototoxic action of lipofuscin granules: result in words
Procedure: Liposomes are prepared from methanolic solution of cardiolipin (initial concentration: 5 mg/ml) by evaporation of methanol and solubilization of cardiolipin in a phosphate buffer. A mixture comprising a suspension of liposomes and lipofuscin granules, isolated from tissue of a retinal pigmentary epithelium of a human eye, is subjected to irradiation with intensive blue light under constant stirring. Concentration of lipid peroxidation products (TBK-active products) is determined after 20, 40, 60 and 90 minutes. The experimental sample contained 2 mM of a solution of compound Ic, or 2 mM of a solution of mexydole.

[2] = 1st day, anterior chamber liquid (ACL)
[3] = 7th day, anterior chamber liquid (ACL)
[4] = 14th day, anterior chamber liquid (ACL)

**Q.** How did the AOA (traumatic hemophthalmia; [2]) turn out when “2,4,6-trimethyl-3-oxypyridine succinate [Compound Ic]” was run?
**A.** 0.4 ± 0.01 relative unit

**Q.** And the “Concentration of TBA-active products” value (traumatic hemophthalmia; [2])?
**A.** 0.97 ± 0.18 nmol/mL

**Q.** And the Protein concentration (traumatic hemophthalmia; [2])?
**A.** 3.1 ± 1.2 mg/mL

**Q.** What about the AOA (traumatic hemophthalmia; 1st day, blood serum (BS)) of the same substance?
**A.** 1.7 ± 0.3 relative unit

**Q.** What about the “Concentration of TBA-active products” value (traumatic hemophthalmia; 1st day, blood serum (BS)) of the same substance?
**A.** 1.29 ± 0.13 nmol/mL

**Q.** What about the Protein concentration (traumatic hemophthalmia; 1st day, blood serum (BS)) of the same substance?
**A.** 90.0 ± 6.0 mg/mL

**Q.** What about the AOA (traumatic hemophthalmia; 1st day, tear liquid (TL)) of the same substance?
**A.** 0.23 ± 0.02 relative unit

**Q.** What about the “Concentration of TBA-active products” value (traumatic hemophthalmia; 1st day, tear liquid (TL)) of the same substance?
**A.** 0.14 ± 0.01 nmol/mL

**Q.** And the Protein concentration (traumatic hemophthalmia; 1st day, tear liquid (TL))?
**A.** 0.32 ± 0.2 mg/mL

**Q.** And the “AOA of basic group relative to control group, average of all measured substrata” value (traumatic hemophthalmia; 7th day)?
**A.** 1.5 times

**Q.** And the AOA (traumatic hemophthalmia; 7th day, anterior chamber liquid)?
**A.** 0.8±0.07 /100 mcl

**Q.** And the AOA (traumatic hemophthalmia; [3])?
**A.** 0.8 ± 0.07 relative unit

**Q.** And the “Concentration of TBA-active products” value (traumatic hemophthalmia; [3])?
**A.** 0.8 ± 0.5 nmol/mL

**Q.** What about the Protein concentration (traumatic hemophthalmia; [3]) of the same substance?
**A.** 4.4 ± 1.2 mg/mL

**Q.** What about the AOA (traumatic hemophthalmia; 7th day, blood serum) of the same substance?
**A.** 2.4±0.02 /100 mcl

**Q.** And the AOA (traumatic hemophthalmia; 7th day, blood serum (BS))?
**A.** 2.4 ± 0.02 relative unit

**Q.** And the “Concentration of TBA-active products” value (traumatic hemophthalmia; 7th day, blood serum (BS))?
**A.** 1.17 ± 0.05 nmol/mL

**Q.** And the Protein concentration (traumatic hemophthalmia; 7th day, blood serum (BS))?
**A.** 82.4 ± 1.3 mg/mL

**Q.** And the AOA (traumatic hemophthalmia; 7th day, tear liquid)?
**A.** 0.24±0.02 /200 mcl

**Q.** And the AOA (traumatic hemophthalmia; 7th day, tear liquid (TL))?
**A.** 0.24 ± 0.02 relative unit

**Q.** And the “Concentration of TBA-active products” value (traumatic hemophthalmia; 7th day, tear liquid (TL))?
**A.** 0.13 ± 0.05 nmol/mL

**Q.** And the Protein concentration (traumatic hemophthalmia; 7th day, tear liquid (TL))?
**A.** 0.7 ± 0.2 mg/mL

**Q.** And the AOA (traumatic hemophthalmia; 14th day, anterior chamber liquid)?
**A.** 0.5±0.05 /100 mcl

**Q.** And the AOA (traumatic hemophthalmia; [4])?
**A.** 0.5 ± 0.05 relative unit

**Q.** What about the “Concentration of TBA-active products” value (traumatic hemophthalmia; [4]) of the same substance?
**A.** 0.6 ± 0.2 nmol/mL

**Q.** And the Protein concentration (traumatic hemophthalmia; [4])?
**A.** 4.1 ± 1.1 mg/mL

**Q.** And the AOA (traumatic hemophthalmia; 14th day, blood serum)?
**A.** 1.9±0.7 /100 mcl

**Q.** And the AOA (traumatic hemophthalmia; 14th day, blood serum (BS))?
**A.** 1.9 ± 0.7 relative unit

**Q.** What about the “Concentration of TBA-active products” value (traumatic hemophthalmia; 14th day, blood serum (BS)) of the same substance?
**A.** 0.9 ± 0.15 nmol/mL

**Q.** And the Protein concentration (traumatic hemophthalmia; 14th day, blood serum (BS))?
**A.** 47.0 ± 3.0 mg/mL

**Q.** And the AOA (traumatic hemophthalmia; 14th day, tear liquid)?
**A.** 0.08±0.02 /200 mcl

**Q.** And the AOA (traumatic hemophthalmia; 14th day, tear liquid (TL))?
**A.** 0.08 ± 0.02 relative unit

**Q.** What about the “Concentration of TBA-active products” value (traumatic hemophthalmia; 14th day, tear liquid (TL)) of the same substance?
**A.** 0.04 ± 0.07 nmol/mL

**Q.** And the Protein concentration (traumatic hemophthalmia; 14th day, tear liquid (TL))?
**A.** 0.6 ± 0.2 mg/mL

**Q.** And the AOA (traumatic hemophthalmia; Retina, listed under 14th day (eyes enucleated on the 15th day))?
**A.** 0.4 ± 0.07 relative unit

**Q.** What about the AOA (traumatic hemophthalmia; Vitreous body, listed under 14th day (eyes enucleated on the 15th day)) of the same substance?
**A.** 3.5 ± 0.9 relative unit

**Q.** And the “Antioxidant activity in vivo in comparison” value (traumatic hemophthalmia; conclusion in words)?
**A.** higher antioxidant activity than emoxipin

**Q.** And the “Augmentation of AOA in basic group in comparison with the control group” value (traumatic hemophthalmia; eye tunics, a retina and a vitreous body)?
**A.** 2 times

**Q.** And the “Concentration of TBK-active products” value ([1]; radiation time 0 min)?
**A.** 1.3 nmol/mg lipid

**Q.** And the Inhibition ([1]; radiation time 0 min)?
**A.** 0%

**Q.** And the “Concentration of TBK-active products” value ([1]; radiation time 20 min)?
**A.** 2.42 nmol/mg lipid

**Q.** What about the Inhibition ([1]; radiation time 20 min) of the same substance?
**A.** 20%

**Q.** What about the “Concentration of TBK-active products” value ([1]; radiation time 40 min) of the same substance?
**A.** 2.53 nmol/mg lipid

**Q.** What about the Inhibition ([1]; radiation time 40 min) of the same substance?
**A.** 28%

**Q.** And the “Concentration of TBK-active products” value ([1]; radiation time 60 min)?
**A.** 2.85 nmol/mg lipid

**Q.** And the Inhibition ([1]; radiation time 60 min)?
**A.** 40%

**Q.** And the “Concentration of TBK-active products” value ([1]; radiation time 90 min)?
**A.** 3.28 nmol/mg lipid

**Q.** What about the Inhibition ([1]; radiation time 90 min) of the same substance?
**A.** 40%

**Q.** What about the “Inhibiting / protective effect regarding phototoxic action of lipofuscin granules” value [1] of the same substance?
**A.** active inhibitor

**Q.** What about the “Inhibiting / protective effect regarding phototoxic action of lipofuscin granules” value ([1]; listed as I) of the same substance?
**A.** protective effect

Reference: patent publication US20110045065A1, “SUBSTANCE HAVING ANTIOXIDANT, GEROPROTECTIVE AND ANTI-ISCHEMIC ACTIVITY AND METHOD FOR THE PREPARATION THEREOF” (priority 2005, published 2011)
